Literature values, collected in patent US20030158158A1, “Oct preparations” (priority 2000, published 2003).

Legend:
[1] = not given; remark: listed apart in the source
[2] = not given; remark: listed apart in the source

- decomposition in aqueous solutions: rapidly decompose
- in vivo calcium elevating effect [2]: low
Structure (SMILES): C=C1/C(=C\C=C2/CCC[C@]3(C)[C@@H]([C@H](C)OCCC(C)(C)O)CC[C@@H]23)C[C@@H](O)C[C@@H]1O [OCT, 1α,25-dihydroxy-22-oxavitamin D3]
- in vitro differentiation-inducing activity [1]: strong
